Series [1] addresses T1, rat mast cell chymase (Rattus norvegicus, UniProt P09650).
T1 sequence (P09650 21-260): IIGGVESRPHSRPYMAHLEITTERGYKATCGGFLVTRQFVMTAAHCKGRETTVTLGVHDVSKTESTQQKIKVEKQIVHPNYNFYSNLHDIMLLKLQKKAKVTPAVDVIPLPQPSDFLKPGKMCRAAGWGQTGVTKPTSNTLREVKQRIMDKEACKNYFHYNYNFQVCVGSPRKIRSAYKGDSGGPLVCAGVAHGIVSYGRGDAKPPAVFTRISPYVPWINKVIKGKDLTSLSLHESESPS
The experiment in a line: […]-casein proteolysis assay. Format: biochemical.

For series [2], the target named is T1, rat mast cell chymase. The series is described as follows: […]-casein proteolysis assay. Format: biochemical. The note with it: read-out: % inhibition at 300 mM.
Series [3] deals with CCOC(=O)[C@H](Cc1ccc(O)cc1)NC(=O)c1ccccc1. The experiment in a line: purified protein. The note with it: 25 C, same experiment as chymase, unit M not printed beside this value.
Substrate in series [4]: CCOC(=O)[C@H](Cc1ccc(O)cc1)NC(=O)c1ccccc1
The series is described as follows: purified protein. Format: biochemical, Rattus norvegicus. The note with it: 25 C, abstract and summary print 1.5 x 10^-3 M (apparent Km).

Molecule `NCCc1c[nH]c2ccc(O)cc12` [5-HT] gave an IC50 in series [1] of 3 mM.

With `NCCc1c[nH]cn1` [histamine], the inhibition at 300000 µM in series [2] worked out at 20%.

As for alpha-chymotrypsin (Bos taurus), the Km in series [3] is 1.17 mM.

B1: rat mast cell chymase (Rattus norvegicus) (protein)
chain: IIGGVESRPHSRPYMAHLEITTERGYKATCGGFLVTRQFVMTAAHCKGRETTVTLGVHDVSKTESTQQKIKVEKQIVHPNYNFYSNLHDIMLLKLQKKAKVTPAVDVIPLPQPSDFLKPGKMCRAAGWGQTGVTKPTSNTLREVKQRIMDKEACKNYFHYNYNFQVCVGSPRKIRSAYKGDSGGPLVCAGVAHGIVSYGRGDAKPPAVFTRISPYVPWINKVIKGKDLTSLSLHESESPS
For the molecule B1, the Km in series [4] was found to be 1.56 mM.

The values above are taken from PMC2180961 (The Journal of Experimental Medicine, 1977).
